Numbers after ± are expanded uncertainties.
Key:
[1] = xn = mol fraction of the nth substance listed; conditions: for surface tension liquid-gas: surface light scattering; for kinematic viscosity: 101 kPa, Liquid, Surface laser light scattering (SLLS)
[2] = for surface tension liquid-gas: surface light scattering; for kinematic viscosity: 101.33 kPa, Liquid, Surface laser light scattering (SLLS)

C=C(F)C(F)(F)F [2,3,3,3-tetrafluoro-1-propene] + FCF
surface tension liquid-gas ([1]; 293.15 K, x2 = 0.7945): 7.04 ± 0.11 mN/m
kinematic viscosity ([1]; 293.15 K, x2 = 0.7945): 1.28e-07 ± 8.7e-09 m2/s
surface tension liquid-gas ([1]; 293.16 K, x2 = 0.5193): 6.55 ± 0.1 mN/m
kinematic viscosity ([1]; 293.16 K, x2 = 0.5193): 1.31e-07 ± 8.8e-09 m2/s
surface tension liquid-gas ([1]; 293.21 K, x2 = 0.6988): 6.9 ± 0.1 mN/m
kinematic viscosity ([1]; 293.21 K, x2 = 0.6988): 1.28e-07 ± 8.7e-09 m2/s
surface tension liquid-gas ([1]; 303.14 K, x2 = 0.7945): 5.57 ± 0.08 mN/m
kinematic viscosity ([1]; 303.14 K, x2 = 0.7945): 1.18e-07 ± 8.7e-09 m2/s
surface tension liquid-gas ([1]; 303.16 K, x2 = 0.5193): 5.29 ± 0.08 mN/m
kinematic viscosity ([1]; 303.16 K, x2 = 0.5193): 1.2e-07 ± 8.7e-09 m2/s
surface tension liquid-gas ([1]; 303.2 K, x2 = 0.6988): 5.49 ± 0.08 mN/m
kinematic viscosity ([1]; 303.2 K, x2 = 0.6988): 1.19e-07 ± 8.7e-09 m2/s
surface tension liquid-gas ([1]; 313.14 K, x2 = 0.5193): 4.1 ± 0.06 mN/m
kinematic viscosity ([1]; 313.14 K, x2 = 0.5193): 1.09e-07 ± 8.6e-09 m2/s
surface tension liquid-gas ([1]; 313.21 K, x2 = 0.6988): 4.1 ± 0.06 mN/m
kinematic viscosity ([1]; 313.21 K, x2 = 0.6988): 1.09e-07 ± 8.6e-09 m2/s
surface tension liquid-gas ([1]; 313.26 K, x2 = 0.7945): 4.14 ± 0.06 mN/m
kinematic viscosity ([1]; 313.26 K, x2 = 0.7945): 1.08e-07 ± 8.6e-09 m2/s
surface tension liquid-gas ([1]; 323.17 K, x2 = 0.5193): 2.96 ± 0.04 mN/m
kinematic viscosity ([1]; 323.17 K, x2 = 0.5193): 1.01e-07 ± 8.5e-09 m2/s
surface tension liquid-gas ([1]; 323.19 K, x2 = 0.6988): 2.82 ± 0.04 mN/m
kinematic viscosity ([1]; 323.19 K, x2 = 0.6988): 9.91e-08 ± 8.5e-09 m2/s
surface tension liquid-gas ([1]; 323.2 K, x2 = 0.7945): 2.83 ± 0.04 mN/m
kinematic viscosity ([1]; 323.2 K, x2 = 0.7945): 9.82e-08 ± 8.5e-09 m2/s
surface tension liquid-gas ([1]; 333.14 K, x2 = 0.5193): 1.91 ± 0.03 mN/m
kinematic viscosity ([1]; 333.14 K, x2 = 0.5193): 9.15e-08 ± 8.5e-09 m2/s
surface tension liquid-gas ([1]; 333.21 K, x2 = 0.6988): 1.66 ± 0.03 mN/m
surface tension liquid-gas ([1]; 333.21 K, x2 = 0.7945): 1.62 ± 0.03 mN/m
kinematic viscosity ([1]; 333.21 K, x2 = 0.6988): 8.98e-08 ± 8.4e-09 m2/s
kinematic viscosity ([1]; 333.21 K, x2 = 0.7945): 8.85e-08 ± 8.4e-09 m2/s
surface tension liquid-gas ([1]; 343.14 K, x2 = 0.5193): 0.97 ± 0.02 mN/m
kinematic viscosity ([1]; 343.14 K, x2 = 0.5193): 8.18e-08 ± 9.1e-09 m2/s
surface tension liquid-gas ([1]; 343.16 K, x2 = 0.6988): 0.66 ± 0.01 mN/m
kinematic viscosity ([1]; 343.16 K, x2 = 0.6988): 7.93e-08 ± 9e-09 m2/s
surface tension liquid-gas ([1]; 343.18 K, x2 = 0.7945): 0.59 ± 0.01 mN/m
kinematic viscosity ([1]; 343.18 K, x2 = 0.7945): 7.71e-08 ± 8.9e-09 m2/s

FCF [difluoromethane]
surface tension liquid-gas ([2]; 293.15 K): 7.4 ± 0.11 mN/m
kinematic viscosity ([2]; 293.15 K): 1.29e-07 ± 8.7e-09 m2/s
surface tension liquid-gas ([2]; 303.15 K): 5.94 ± 0.09 mN/m
kinematic viscosity ([2]; 303.15 K): 1.17e-07 ± 8.7e-09 m2/s
surface tension liquid-gas ([2]; 313.07 K): 4.35 ± 0.07 mN/m
kinematic viscosity ([2]; 313.07 K): 1.08e-07 ± 8.6e-09 m2/s
surface tension liquid-gas ([2]; 323.15 K): 2.96 ± 0.05 mN/m
kinematic viscosity ([2]; 323.15 K): 9.98e-08 ± 8.5e-09 m2/s
surface tension liquid-gas ([2]; 333.14 K): 1.67 ± 0.03 mN/m
kinematic viscosity ([2]; 333.14 K): 9.3e-08 ± 8.5e-09 m2/s
surface tension liquid-gas ([2]; 343.16 K): 0.57 ± 0.01 mN/m
kinematic viscosity ([2]; 343.16 K): 7.95e-08 ± 8.4e-09 m2/s
surface tension liquid-gas ([2]; 348.18 K): 0.14 ± 0.01 mN/m
kinematic viscosity ([2]; 348.18 K): 7.5e-08 ± 8.8e-09 m2/s

F/C=C/C(F)(F)F [trans-1,3,3,3-tetrafluoropropene] + FCF
kinematic viscosity ([1]; 293.14 K, x2 = 0.5697): 1.47e-07 ± 8.9e-09 m2/s
kinematic viscosity ([1]; 293.14 K, x2 = 0.7501): 1.37e-07 ± 8.8e-09 m2/s
surface tension liquid-gas ([1]; 293.16 K, x2 = 0.2985): 8.46 ± 0.13 mN/m
surface tension liquid-gas ([1]; 293.16 K, x2 = 0.5697): 8.02 ± 0.12 mN/m
surface tension liquid-gas ([1]; 293.16 K, x2 = 0.7501): 7.74 ± 0.12 mN/m
kinematic viscosity ([1]; 293.16 K, x2 = 0.2985): 1.61e-07 ± 9e-09 m2/s
kinematic viscosity ([1]; 303.16 K, x2 = 0.5697): 1.34e-07 ± 8.8e-09 m2/s
kinematic viscosity ([1]; 303.16 K, x2 = 0.7501): 1.28e-07 ± 8.7e-09 m2/s
surface tension liquid-gas ([1]; 303.17 K, x2 = 0.2985): 7.17 ± 0.11 mN/m
surface tension liquid-gas ([1]; 303.17 K, x2 = 0.5697): 6.63 ± 0.1 mN/m
surface tension liquid-gas ([1]; 303.17 K, x2 = 0.7501): 6.3 ± 0.09 mN/m
kinematic viscosity ([1]; 303.17 K, x2 = 0.2985): 1.43e-07 ± 8.9e-09 m2/s
kinematic viscosity ([1]; 313.12 K, x2 = 0.5697): 1.22e-07 ± 8.7e-09 m2/s
kinematic viscosity ([1]; 313.12 K, x2 = 0.7501): 1.14e-07 ± 8.6e-09 m2/s
surface tension liquid-gas ([1]; 313.13 K, x2 = 0.2985): 5.93 ± 0.09 mN/m
surface tension liquid-gas ([1]; 313.13 K, x2 = 0.5697): 5.34 ± 0.08 mN/m
surface tension liquid-gas ([1]; 313.13 K, x2 = 0.7501): 4.91 ± 0.07 mN/m
kinematic viscosity ([1]; 313.13 K, x2 = 0.2985): 1.32e-07 ± 8.8e-09 m2/s
surface tension liquid-gas ([1]; 323.13 K, x2 = 0.2985): 4.75 ± 0.07 mN/m
surface tension liquid-gas ([1]; 323.13 K, x2 = 0.5697): 4.15 ± 0.06 mN/m
surface tension liquid-gas ([1]; 323.13 K, x2 = 0.7501): 3.62 ± 0.05 mN/m
kinematic viscosity ([1]; 323.13 K, x2 = 0.2985): 1.23e-07 ± 8.7e-09 m2/s
kinematic viscosity ([1]; 323.14 K, x2 = 0.5697): 1.13e-07 ± 8.6e-09 m2/s
kinematic viscosity ([1]; 323.14 K, x2 = 0.7501): 1.04e-07 ± 8.6e-09 m2/s
kinematic viscosity ([1]; 333.14 K, x2 = 0.5697): 1.03e-07 ± 8.5e-09 m2/s
kinematic viscosity ([1]; 333.14 K, x2 = 0.7501): 9.75e-08 ± 8.5e-09 m2/s
surface tension liquid-gas ([1]; 333.16 K, x2 = 0.2985): 3.62 ± 0.05 mN/m
surface tension liquid-gas ([1]; 333.16 K, x2 = 0.5697): 2.89 ± 0.04 mN/m
surface tension liquid-gas ([1]; 333.16 K, x2 = 0.7501): 2.41 ± 0.04 mN/m
kinematic viscosity ([1]; 333.16 K, x2 = 0.2985): 1.11e-07 ± 8.6e-09 m2/s
kinematic viscosity ([1]; 343.11 K, x2 = 0.5697): 9.31e-08 ± 9.5e-09 m2/s
kinematic viscosity ([1]; 343.11 K, x2 = 0.7501): 8.96e-08 ± 9.4e-09 m2/s
surface tension liquid-gas ([1]; 343.12 K, x2 = 0.2985): 2.54 ± 0.04 mN/m
surface tension liquid-gas ([1]; 343.12 K, x2 = 0.5697): 1.83 ± 0.03 mN/m
surface tension liquid-gas ([1]; 343.12 K, x2 = 0.7501): 1.32 ± 0.02 mN/m
kinematic viscosity ([1]; 343.12 K, x2 = 0.2985): 1.02e-07 ± 9.9e-09 m2/s
surface tension liquid-gas ([1]; 348.17 K, x2 = 0.2985): 2.06 ± 0.03 mN/m
surface tension liquid-gas ([1]; 348.17 K, x2 = 0.5697): 1.34 ± 0.02 mN/m
surface tension liquid-gas ([1]; 348.17 K, x2 = 0.7501): 0.83 ± 0.01 mN/m
kinematic viscosity ([1]; 348.17 K, x2 = 0.2985): 9.63e-08 ± 9.7e-09 m2/s
kinematic viscosity ([1]; 348.19 K, x2 = 0.5697): 8.74e-08 ± 9.3e-09 m2/s
kinematic viscosity ([1]; 348.19 K, x2 = 0.7501): 8.58e-08 ± 9.2e-09 m2/s
